The values below come from patent US8426447B2, “Spiro-tricyclic ring compounds as beta-secretase modulators and methods of use” (Amgen Inc., priority 2008, dated 2013).

Where only a bound is given, the exact number is not on record here.

For assay [1], the target named is T1, BACE1 (Homo sapiens, UniProt P56817). As to the kind of experiment: In Vitro Enzymatic BACE FRET (Fluorescence Resonance Energy Transfer) Assay. Type of assay: biochemical. The method, boiled down: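 Acetate buffer at pH 4.2 with 10% DMSO and 100 uM genapol hosts the enzymatic reaction, initiated by 50 nM FRET substrate and allowed to proceed one hour. Tris quench to neutral pH precedes the fluorescence measurement.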

Assay [2] deals with T1, BACE1. As to the kind of experiment: In Vitro BACE Cell-based Assay (HEK cell assay): Aβ40 in conditioned medium of cells stably expressing Amyloid Precursor Protein, sandwich ELISA. The method, boiled down:
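APP-expressing cells were cultured 24 h in DMEM/10% FBS, then treated 24 h with compounds in 10-point dose response (top 100 μM or 10 μM; 0.1% DMSO final). Secreted Aβ40 was quantified by sandwich ELISA (pAb40 capture, biotinylated 6E10 detection, Europium TRF); IC50 from percent inhibition versus concentration.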

The subject of assay [3] is amyloid beta peptide (A-beta) in cerebrospinal fluid and brain. Description: In Vivo Inhibition of Beta-Secretase: reduction of A-beta levels in CSF and brain. As to conditions: after 4 hrs, mouse or rat.
From the text: Several animal models, including mouse, rat, dog, and monkey, may be used to screen for inhibition of beta-secretase activity in vivo following administration of a test compound sample. Animals used in this invention can be wild type, transgenic, or gene knockout animals. […] A separate group of animals receive 2% hydroxypropyl methylcellulose, 1% Tween80 alone, containing no test compound, and serve as a vehicle-control group. At the end of the test period, animals are sacrificed and brain tissues, plasma or cerebrospinal fluid are collected. […] Homogenates are centrifuged at 355,000 g, 4° C. for 30 minutes. CSF or brain supernatants are then analyzed for the presence of A-beta peptide by specific sandwich ELISA assays based on ECL (Electrochemiluminescence) technology. For example, rat Abeta40 is measured using biotinylated-4G8 (Signet) as a capture antibody and Fab40 (an in-house antibody specific to the C-terminal of Abeta40) as a detection antibody.
Where [4] appears, read: Table IV, class symbols, read-out: BACE1 FRET assay.
Where [5] appears, read: Table IV, class symbols, read-out: HEK cell assay.
[6] abbreviates: HEK cells, read-out: HEK cell assay.

T1 sequence (P56817 46-501, species assumed): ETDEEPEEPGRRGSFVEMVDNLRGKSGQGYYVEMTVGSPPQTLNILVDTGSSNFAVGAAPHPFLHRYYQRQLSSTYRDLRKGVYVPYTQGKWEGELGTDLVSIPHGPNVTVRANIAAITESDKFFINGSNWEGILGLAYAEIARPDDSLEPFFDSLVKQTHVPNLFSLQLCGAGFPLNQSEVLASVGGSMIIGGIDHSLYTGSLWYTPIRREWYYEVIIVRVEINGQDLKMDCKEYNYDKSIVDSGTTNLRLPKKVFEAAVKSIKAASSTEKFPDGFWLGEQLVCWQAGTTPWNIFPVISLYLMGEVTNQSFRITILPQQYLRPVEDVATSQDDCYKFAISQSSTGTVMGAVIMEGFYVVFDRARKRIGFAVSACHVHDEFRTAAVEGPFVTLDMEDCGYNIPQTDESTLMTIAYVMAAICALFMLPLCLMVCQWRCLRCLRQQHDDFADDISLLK

As for `CC1(C)C=C(c2ccc3c(c2)[C@]2(COC(N)=N2)c2cc(-c4cncnc4)ccc2O3)CCO1` [Example 689, (4R)-2′-(6,6-dimethyl-3,6-dihydro-2H-pyran-4-yl)-7′-(5-pyrimidinyl)spiro[1,3-oxazole-4,9′-xanthen]-2-amine], the IC50 at BACE1 [1] (read-out: BACE1 FRET assay) was less than 0.1 µM. The IC50 at BACE1 [2] (read-out: HEK cell assay) was less than 0.1 µM. Also, in assay [3] (30 mpk), the “percent reduction in CSF A-beta levels” value stood at 69% and the “percent reduction in brain A-beta levels” value was 41%.

For `CC(C)(C)C#Cc1cnc2c(c1)[C@]1(COC(N)=N1)c1cc(-c3cncnc3)ccc1O2` [Example 299, (S)-3-(3,3-dimethylbut-1-ynyl)-7-(pyrimidin-5-yl)-5′H-spiro[chromeno[2,3-b]pyridine-5,4′-oxazol]-2′-amine], the IC50 on BACE1 [1] (read-out: BACE1 FRET assay) is less than 0.1 µM. Also, the IC50 on BACE1 [2] (read-out: HEK cell assay) was less than 0.1 µM. Moreover, in assay [3] (30 mpk), the “percent reduction in CSF A-beta levels” value was determined as 84% and the “percent reduction in brain A-beta levels” value stood at 81%.

As to `NC1=N[C@@]2(CO1)c1cc(-c3cccnc3)ccc1Oc1ccc(N3CC(F)(F)C3)cc12` [Example 540, (4S)-2′-(3,3-difluoro-1-azetidinyl)-7′-(3-pyridinyl)spiro[1,3-oxazole-4,9′-xanthen]-2-amine], the IC50 at BACE1 [1] (setting [4]) and at BACE1 [2] (setting [5]) was less than 0.1 µM throughout. In addition, the “percent reduction in CSF A-beta levels” value in assay [3] (10 mpk) is on record as 40%. Also, the “percent reduction in brain A-beta levels” value in assay [3] (10 mpk) is recorded as 7%.

For `Cn1cc(-c2cc3c(cc2F)Oc2ccc(-c4cccnc4)cc2[C@@]32COC(N)=N2)cn1` [Example 531, (4S)-3′-fluoro-2′-(1-methyl-1H-pyrazol-4-yl)-7′-(3-pyridinyl)spiro[1,3-oxazole-4,9′-xanthen]-2-amine], the IC50 on BACE1 [1] (read-out: BACE1 FRET assay) and at BACE1 [2] (setting [6]) was less than 0.1 µM throughout. For the same compound, in assay [3] (10 mpk), the “percent reduction in CSF A-beta levels” value is 45%. Moreover, the “percent reduction in brain A-beta levels” value in assay [3] (10 mpk) is reported as 25%.

Turning to `Cc1cc(-c2ccc3c(c2)[C@]2(COC(N)=N2)c2cc(-c4cccnc4F)ccc2O3)on1` [Example 563, (4S)-2′-(2-fluoro-3-pyridinyl)-7′-(3-methyl-5-isoxazolyl)spiro[1,3-oxazole-4,9′-xanthen]-2-amine], the IC50 at BACE1 [1] (setting [4]) was less than 0.1 µM. Moreover, on BACE1 [2] (setting [5]), the IC50 is less than 0.1 µM. In addition, in assay [3] (10 mpk), the “percent reduction in CSF A-beta levels” value is given as 54% and the “percent reduction in brain A-beta levels” value was 41%.

As for `NC1=N[C@]2(CO1)c1cc(OCC3CC3)ccc1Oc1ccc(-c3cncnc3)cc12` [Example 61, (4S)-2′-(cyclopropylmethoxy)-7′-(5-pyrimidinyl)spiro[1,3-oxazole-4,9′-xanthen]-2-amine], the IC50 on BACE1 [1] (Table II, read-out: BACE1 FRET assay) was less than 0.1 µM. At BACE1 [2] (Table II, Aβ40, 24 h incubation, read-out: HEK cell assay), the IC50 was less than 0.1 µM. In addition, in assay [3] (10 mpk), the “percent reduction in CSF A-beta levels” value is 50% and the “percent reduction in brain A-beta levels” value is 18%.

Take `Cc1cnc(F)c(-c2ccc3c(c2)[C@@]2(COC(N)=N2)c2cc(C4=CCOCC4)ncc2O3)c1` [Example 286, (S)-3-(3,6-dihydro-2H-pyran-4-yl)-7-(2-fluoro-5-methylpyridin-3-yl)-5′H-spiro[chromeno[2,3-c]pyridine-5,4′-oxazol]-2′-amine]: the IC50 on BACE1 [1] (read-out: BACE1 FRET assay) is less than 0.1 µM. Moreover, on BACE1 [2] (setting [6]), the IC50 was less than 0.1 µM. Further, in assay [3] (10 mpk), the “percent reduction in CSF A-beta levels” value is on record as 73% and the “percent reduction in brain A-beta levels” value worked out at 57%.

For `NC1=N[C@@]2(CO1)c1cc(-c3cccnc3F)ccc1Oc1cnc(-c3cccnc3)cc12` [Example 517, (5S)-7-(2-fluoro-3-pyridinyl)-3-(3-pyridinyl)spiro[chromeno[2,3-c]pyridine-5,4′-[1,3]oxazol]-2′-amine], the IC50 at BACE1 [1] (BACE1 FRET assay (uM)) was less than 0.1 µM. The compound also yielded an IC50 against BACE1 [2] (HEK cell assay (uM), HEK cells) of less than 0.1 µM. For the same compound, in assay [3] (10 mpk), the “percent reduction in CSF A-beta levels” value is given as 56% and the “percent reduction in brain A-beta levels” value came out at 36%.

As for `NC1=NC2(CO1)c1cc(-c3cccnc3)ccc1Oc1c(F)cc(C3=CCOCC3)cc12` (stereo in doubt) [Example 297, (R)-2′-(3,6-dihydro-2H-pyran-4-yl)-4′-fluoro-7′-(pyridin-3-yl)-5H-spiro[oxazole-4,9′-xanthen]-2-amine], the IC50 at BACE1 [1] (setting [4]) and on BACE1 [2] (setting [5]) was less than 0.1 µM in each case. Further, the “percent reduction in CSF A-beta levels” value in assay [3] (30 mpk) was determined as 69%. Also, the “percent reduction in brain A-beta levels” value in assay [3] (30 mpk) was found to be 54%.
